Data taken from patent US10640534B2 (Agios Pharmaceuticals, Inc., priority 2012, dated 2020).

These compounds were tested on U87MG cells (assay: Cellular assay, inhibition of 2-HG production in U87MG cells). Details: Homo sapiens, U-87 MG, 48 h.
Assay type: cell-based
Method in brief: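 HT1080 or U87MG cells (U87MG kept with 500 ug/mL G418) seeded at 5000 cells/well and treated with compound at 0.2% final DMSO. Incubated 48 h at 37 °C. 2-HG inhibition determined by LC-MS. Viability read by CellTiter-Glo luminescence at 72 h post-dose.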

IC50 [nM] | SMILES
< 100 | N#Cc1ccnc(N2C(=O)CNC[C@H]2C(=O)N(c2cc(F)cc(F)c2)[C@H](C(=O)NC2CC(F)(F)C2)c2ccccc2Cl)c1 [Compound 100, (S)—N—((S)-1-(2-Chlorophenyl)-2-((3,3-difluorocyclobutyl)amino)-2-oxoethyl)-1-(4-cyanopyridin-2-yl)-N-(3,5-difluorophenyl)-6-oxopiperazine-2-carboxamide]
< 100 | CN1CC(=O)N(c2cc(C#N)ccn2)[C@H](C(=O)N(c2cc(F)cc(F)c2)[C@H](C(=O)NC2CC(F)(F)C2)c2ccccc2Cl)C1 [Compound 101, (S)—N—((S)-1-(2-chlorophenyl)-2-((3,3-difluorocyclobutyl)amino)-2-oxoethyl)-1-(4-cyanopyridin-2-yl)-N-(3,5-difluorophenyl)-4-methyl-6-oxopiperazine-2-carboxamide]
100 to 500 | CS(=O)(=O)c1cccc(N(C(=O)[C@@H]2CCC(=O)N2c2nccc(C#N)n2)[C@H](C(=O)NC2CCC(F)(F)CC2)c2ccccc2Cl)c1 [Compound 103, (S)—N—((S)-1-(2C)-2-((4,4-difluorocyclohexyl)amino)-2-oxoethyl)-1-(4-cyanopyrimidin-2-yl)-N-(3-(methylsulfonyl)phenyl)-5-oxopyrrolidine-2-carboxamide]
< 100 | CCOC(=O)CN1CC(=O)N(c2cc(C#N)ccn2)[C@H](C(=O)N(c2cc(F)cc(F)c2)[C@H](C(=O)NC2CC(F)(F)C2)c2ccccc2Cl)C1 [Compound 104]
< 100 | CS(=O)(=O)c1cc(F)cc(N(C(=O)[C@@H]2CCC(=O)N2c2cc(C#N)ccn2)C(C(=O)NC2CCC(F)(F)CC2)c2ccccc2Cl)c1 (stereo partly drawn) [Compound 105, (2S)—N-(1-(2-Chlorophenyl)-2-((4,4-difluorocyclohexyl)amino)-2-oxoethyl)-1-(4-cyanopyridin-2-yl)-N-(3-fluoro-5-(methylsulfonyl)phenyl)-5-oxopyrrolidine-2-carboxamide]
< 100 | N#Cc1ccnc(N2C(=O)CN(C3CC3)C[C@H]2C(=O)N(c2cc(F)cc(F)c2)[C@H](C(=O)NC2CC(F)(F)C2)c2ccccc2Cl)c1 [Compound 106, (S)—N—((S)-1-(2-chlorophenyl)-2-((3,3-difluorocyclobutyl)amino)-2-oxoethyl)-1-(4-cyanopyridin-2-yl)-4-cyclopropyl-N-(3,5-difluorophenyl)-6-oxopiperazine-2-carboxamide]
< 100 | N#Cc1ccnc(N2C(=O)CN(CCO)C[C@H]2C(=O)N(c2cc(F)cc(F)c2)[C@H](C(=O)NC2CC(F)(F)C2)c2ccccc2Cl)c1 [Compound 107, (S)—N—((S)-1-(2-chlorophenyl)-2-((3,3-difluorocyclobutyl)amino)-2-oxoethyl)-1-(4-cyanopyridin-2-yl)-N-(3,5-difluorophenyl)-4-(2-hydroxyethyl)-6-oxopiperazine-2-carboxamide]
< 100 | CS(=O)(=O)c1cc(F)cc(N(C(=O)[C@@H]2CCC(=O)N2c2nccc(C#N)n2)C(C(=O)NC2CCC(F)(F)CC2)c2ccccc2Cl)c1 (stereo partly drawn) [Compound 108, (2S)—N-(1-(2-Chlorophenyl)-2-((4,4-difluorocyclohexyl)amino)-2-oxoethyl)-1-(4-cyanopyrimidin-2-yl)-N-(3-fluoro-5-(methylsulfonyl)phenyl)-5-oxopyrrolidine-2-carboxamide]
100 to 500 | CS(=O)(=O)c1cc(F)cc(N(C(=O)[C@@H]2CCC(=O)N2c2nccc(C#N)n2)[C@H](C(=O)NC2CC(F)(F)C2)c2ccccc2Cl)c1 [Compound 109, (S)—N—((S)-1-(2-Chlorophenyl)-2-((3,3-difluorocyclobutyl)amino)-2-oxoethyl)-1-(4-cyanopyrimidin-2-yl)-N-(3-fluoro-5-(methylsulfonyl)phenyl)-5-oxopyrrolidine-2-carboxamide]
< 100 | CCOC(=O)CN1C[C@@H](C(=O)N(c2cccc(F)c2)C(C(=O)NC2CC(F)(F)C2)c2ccccc2Cl)N(c2nccc(C#N)n2)C1=O (stereo partly drawn) [Compound 111, Ethyl 2-((4S)-4-((1-(2-chlorophenyl)-2-((3,3-difluorocyclobutyl)amino)-2-oxoethyl)(3-fluorophenyl)carbamoyl)-3-(4-cyanopyrimidin-2-yl)-2-oxoimidazolidin-1-yl)acetate]
< 100 | N#Cc1ccnc(N2C(=O)N(CCO)C[C@H]2C(=O)N(c2cccc(F)c2)C(C(=O)NC2CC(F)(F)C2)c2ccccc2Cl)c1 (stereo partly drawn) [Compound 112, (4S)—N-(1-(2-Chlorophenyl)-2-(3,3-difluorocyclobutyl-amino)-2-oxoethyl)-3-(4-cyanopyridin-2-yl)-N-(3-fluorophenyl)-1-(2-hydroxyeth-yl)-2-oxoimidazolidine-4-carboxamide]
< 100 | N#Cc1ccnc(N2C(=O)[C@H](O)C[C@H]2C(=O)N(c2cccc(F)c2)[C@H](C(=O)NC2CC(F)(F)C2)c2ccccc2Cl)c1 [Compound 113, (2S,4R)—N—((S)-1-(2-Chlorophenyl)-2-(3,3-difluorocyclobutylamino)-2-oxoethyl)-1-(4-cyanopyridin-2-yl)-N-(3-fluorophenyl)-4-hydroxy-5-oxopyrrolidine-2-carboxamide]
< 100 | N#Cc1ccnc(N2C(=O)[C@H](O)C[C@H]2C(=O)N(c2cc(F)cc(F)c2)[C@@H](C(=O)NC2CC(F)(F)C2)c2ccccc2Cl)c1 [Compound 114, (2S,4R)—N—((R)-1-(2-Chlorophenyl)-2-((3,3-difluorocyclobutyl)amino)-2-oxoethyl)-1-(4-cyanopyridin-2-yl)-N-(3,5-difluorophenyl)-4-hydroxy-5-oxopyrrolidine-2-carboxamide]
< 100 | N#Cc1ccnc(N2C(=O)[C@H](O)C[C@H]2C(=O)N(c2cc(F)cc(F)c2)[C@H](C(=O)NC2CC(F)(F)C2)c2ccccc2Cl)c1 [Compound 115, (2S,4R)—N—((S)-1-(2-Chlorophenyl)-2-((3,3-difluorocyclobutyl)amino)-2-oxoethyl)-1-(4-cyanopyridin-2-yl)-N-(3,5-difluorophenyl)-4-hydroxy-5-oxopyrrolidine-2-carboxamide]
100 to 500 | N#Cc1ccnc(N2C(=O)[C@H](O)C[C@H]2C(=O)N(c2cc(F)cc(F)c2)[C@@H](C(=O)NC2CC(F)(F)C2)c2ccccc2Cl)n1 [Compound 116, (2S,4R)—N—((R)-1-(2-Chlorophenyl)-2-((3,3-difluorocyclobutyl)amino)-2-oxoethyl)-1-(4-cyanopyrimidin-2-yl)-N-(3,5-difluorophenyl)-4-hydroxy-5-oxopyrrolidine-2-carboxamide]
< 100 | N#Cc1ccnc(N2C(=O)[C@H](O)C[C@H]2C(=O)N(c2cc(F)cc(F)c2)[C@H](C(=O)NC2CC(F)(F)C2)c2ccccc2Cl)n1 [Compound 117, (2S,4R)—N—((S)-1-(2-Chlorophenyl)-2-((3,3-difluorocyclobutyl)amino)-2-oxoethyl)-1-(4-cyanopyrimidin-2-yl)-N-(3,5-difluorophenyl)-4-hydroxy-5-oxopyrrolidine-2-carboxamide]
< 100 | N#Cc1ccnc(N2C(=O)[C@@H](O)C[C@H]2C(=O)N(c2cccc(F)c2)[C@H](C(=O)NC2CC(F)(F)C2)c2ccccc2Cl)c1 [Compound 118, (2S,4S)—N—((S)-1-(2-Chlorophenyl)-2-(3,3-difluorocyclobutylamino)-2-oxoethyl)-1-(4-cyano-pyridin-2-yl)-N-(3-fluorophenyl)-4-hydroxy-5-oxopyrrolidine-2-carboxamide]
100 to 500 | N#Cc1ccnc(N2C(=O)[C@@H](O)C[C@H]2C(=O)N(c2cccc(F)c2)[C@H](C(=O)NC2CC(F)(F)C2)c2ccccc2Cl)n1 [Compound 119, (2S,4S)—N—((S)-1-(2-Chlorophenyl)-2-(3,3-difluorocyclobutylamino)-2-oxoethyl)-1-(4-cyanopyrimidin-2-yl)-N-(3-fluorophenyl)-4-hydroxy-5-oxopyrrolidine-2-carboxamide]
100 to 500 | N#Cc1ccnc(N2C(=O)[C@H](O)C[C@H]2C(=O)N(c2cccc(F)c2)[C@H](C(=O)NC2CC(F)(F)C2)c2ccccc2Cl)n1 [Compound 120, (2S,4R)—N—((S)-1-(2-Chlorophenyl)-2-((3,3-difluorocyclobutyl)amino)-2-oxoethyl)-1-(4-cyanopyrimidin-2-yl)-N-(3-fluorophenyl)-4-hydroxy-5-oxopyrrolidine-2-carboxamide]
< 100 | N#Cc1ccnc(N2C(=O)[C@H](O)C[C@H]2C(=O)N(c2cccc(F)c2)[C@H](C(=O)NC2CCC(F)(F)CC2)c2ccccc2Cl)c1 [Compound 121, (2S,4R)—N—((S)-1-(2-Chlorophenyl)-2-((4,4-difluorocyclohexyl)amino)-2-oxoethyl)-1-(4-cyanopyridin-2-yl)-N-(3-fluorophenyl)-4-hydroxy-5-oxopyrrolidine-2-carboxamide]
100 to 500 | N#Cc1ccnc(N2C(=O)[C@H](O)C[C@H]2C(=O)N(c2cccc(F)c2)[C@@H](C(=O)NC2CCC(F)(F)CC2)c2ccccc2Cl)n1 [Compound 122, (2S,4R)—N—((R)-1-(2-Chlorophenyl)-2-((4,4-difluorocyclohexyl)amino)-2-oxoethyl)-1-(4-cyanopyrimidin-2-yl)-N-(3-fluorophenyl)-4-hydroxy-5-oxopyrrolidine-2-carboxamide]
< 100 | N#Cc1ccnc(N2C(=O)[C@H](O)C[C@H]2C(=O)N(c2cccc(F)c2)[C@H](C(=O)NC2CCC(F)(F)CC2)c2ccccc2Cl)n1 [Compound 123, (2S,4R)—N—((S)-1-(2-Chlorophenyl)-2-((4,4-difluorocyclohexyl)amino)-2-oxoethyl)-1-(4-cyanopyrimidin-2-yl)-N-(3-fluorophenyl)-4-hydroxy-5-oxopyrrolidine-2-carboxamide]
< 100 | N#Cc1ccnc(N2C(=O)[C@H](O)C[C@H]2C(=O)N(c2cc(F)cc(F)c2)[C@@H](C(=O)NC2CCC(F)(F)CC2)c2ccccc2Cl)c1 [Compound 124, (2S,4R)—N—((R)-1-(2-Chlorophenyl)-2-(4,4-difluorocyclohexylamino)-2-oxoethyl)-1-(4-cyanopyridin-2-yl)-N-(3,5-difluorophenyl)-4-hydroxy-5-oxopyrrolidine-2-carboxamide]
